Literature values in patent US20120082623A1, “SHH Regulation and Methods Thereof” (priority 2009, published 2012).

Tested on: SVZ derived EGFR+ cells
Settings: neurospheres, dose dependent manner; cited from earlier work

## NCCc1ccc(O)c(O)c1 [dopamine]
  proliferation of SVZ derived EGFR+ cells: increased the proliferation of SVZ derived EGFR+ cells
